Four compounds from PMC4648050, “Discovery of Inhibitors of Trypanosoma brucei by Phenotypic Screening of a Focused Protein Kinase Library” (Chemmedchem, 2015) can be followed below.

Type in all cases: biochemical, human/mammalian
Assay [1] has as its target IRR (Homo sapiens, UniProt P14616). Description: Kinase panel: IRR. The following applies: compound at 10 μM, read-out: % of activity respect of the control. On the procedure: (§1) The DDU kinase-focused compound set contains lead-like scaffolds that are designed to target protein kinases; they have kinase hinge binding motifs. Four of the 1H-imidazopyrazinones were screened against a human/mammalian kinase panel at the University of Dundee (http://www.kinase-screen.mrc.ac.uk) at a concentration of 10 μM. At the time of testing the panel contained 79 mammalian kinases selected to provide a broad coverage of the mammalian kinome (∼500 kinases in the human genome).[3] None of the compounds were active against any of the kinases at 10 μM.

The target of assay [2] is P38b MAPK (Homo sapiens, UniProt Q15759). Description: Kinase panel: P38b MAPK. The note with it: compound at 10 μM, read-out: % of activity respect of the control. On the procedure: as §1
Sequence of P38b MAPK (Q15759 whole entry): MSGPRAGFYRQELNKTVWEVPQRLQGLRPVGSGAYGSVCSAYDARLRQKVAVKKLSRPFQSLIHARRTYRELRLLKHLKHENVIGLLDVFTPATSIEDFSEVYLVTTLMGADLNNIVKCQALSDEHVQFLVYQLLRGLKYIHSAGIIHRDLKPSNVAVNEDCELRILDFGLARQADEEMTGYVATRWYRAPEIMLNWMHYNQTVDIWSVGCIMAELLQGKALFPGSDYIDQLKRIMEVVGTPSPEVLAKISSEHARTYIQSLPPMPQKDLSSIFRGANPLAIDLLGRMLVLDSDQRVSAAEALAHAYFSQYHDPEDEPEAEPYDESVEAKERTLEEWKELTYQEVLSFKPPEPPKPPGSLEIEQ
The target of assay [3] is T1, IKK epsilon (14231) (Homo sapiens, UniProt Q14164).
T1 sequence (Q14164 1-716): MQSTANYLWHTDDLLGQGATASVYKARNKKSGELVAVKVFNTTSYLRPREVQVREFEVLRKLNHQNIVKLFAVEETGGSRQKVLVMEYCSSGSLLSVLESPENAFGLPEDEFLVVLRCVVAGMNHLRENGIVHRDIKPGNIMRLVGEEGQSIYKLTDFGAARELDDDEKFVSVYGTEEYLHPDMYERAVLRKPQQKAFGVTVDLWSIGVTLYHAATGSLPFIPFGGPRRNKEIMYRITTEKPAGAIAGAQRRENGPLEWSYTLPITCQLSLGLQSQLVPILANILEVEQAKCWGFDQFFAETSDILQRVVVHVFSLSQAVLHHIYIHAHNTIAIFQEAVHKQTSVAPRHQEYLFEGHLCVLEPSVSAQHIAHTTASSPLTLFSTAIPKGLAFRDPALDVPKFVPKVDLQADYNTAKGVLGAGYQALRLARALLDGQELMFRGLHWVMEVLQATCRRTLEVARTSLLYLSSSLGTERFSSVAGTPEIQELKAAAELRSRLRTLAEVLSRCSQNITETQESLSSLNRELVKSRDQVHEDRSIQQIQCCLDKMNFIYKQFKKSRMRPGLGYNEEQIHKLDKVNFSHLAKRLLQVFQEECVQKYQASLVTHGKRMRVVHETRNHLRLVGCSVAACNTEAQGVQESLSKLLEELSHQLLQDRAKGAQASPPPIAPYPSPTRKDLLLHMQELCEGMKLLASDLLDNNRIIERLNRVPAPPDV
Description: Kinase panel: IKK epsilon (14231). The following applies: compound at 10 μM, read-out: % of activity respect of the control. On the procedure: as §1

Assay [4] addresses RSK2 (Homo sapiens, UniProt P51812). Put plainly: Kinase panel: RSK2. The following applies: compound at 10 μM, read-out: % of activity respect of the control. On the procedure:
as §1

Assay [5] addresses T2, CHK1 (Homo sapiens, UniProt O14757).
T2 sequence (O14757 1-476): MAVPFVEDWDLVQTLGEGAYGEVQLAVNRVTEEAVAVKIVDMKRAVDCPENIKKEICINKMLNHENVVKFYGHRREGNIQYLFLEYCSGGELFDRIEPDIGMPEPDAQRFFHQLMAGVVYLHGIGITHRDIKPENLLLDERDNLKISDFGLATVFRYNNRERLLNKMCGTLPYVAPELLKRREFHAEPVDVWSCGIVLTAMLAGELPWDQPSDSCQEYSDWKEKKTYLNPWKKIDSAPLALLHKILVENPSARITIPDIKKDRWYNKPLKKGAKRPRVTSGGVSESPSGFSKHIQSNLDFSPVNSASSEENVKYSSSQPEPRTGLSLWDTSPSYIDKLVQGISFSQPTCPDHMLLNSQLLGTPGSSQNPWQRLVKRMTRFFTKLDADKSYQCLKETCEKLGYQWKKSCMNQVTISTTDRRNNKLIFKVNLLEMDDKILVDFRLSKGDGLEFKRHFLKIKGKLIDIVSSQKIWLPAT
Description: Kinase panel: CHK1. The note with it: compound at 10 μM, read-out: % of activity respect of the control. On the procedure:
as §1

Assay [6] concerns the target PIM2 (Homo sapiens, UniProt Q9P1W9). Description: Kinase panel: PIM2. The note with it: compound at 10 μM, read-out: % of activity respect of the control. On the procedure: as §1
Assay [7] concerns the target NEK6 (Homo sapiens, UniProt Q9HC98). Description: Kinase panel: NEK6. The following applies: compound at 10 μM, read-out: % of activity respect of the control. On the procedure: as §1
The target of assay [8] is PKCa (Homo sapiens, UniProt P17252). Put plainly: Kinase panel: PKCa. The following applies: compound at 10 μM, read-out: % of activity respect of the control. On the procedure:
as §1

Assay [9] addresses MSK1 (Homo sapiens, UniProt O75582). Description: Kinase panel: MSK1. The following applies: compound at 10 μM, read-out: % of activity respect of the control. On the procedure: as §1
Assay [10] concerns the target JNK2 (Homo sapiens, UniProt P45984). Description: Kinase panel: JNK2. The following applies: compound at 10 μM, read-out: % of activity respect of the control. On the procedure: as §1
Assay [11] deals with PHK. Description: Kinase panel: PHK. The note with it: compound at 10 μM. On the procedure:
as §1

Assay [12] deals with PAK4 (Homo sapiens, UniProt O96013). Description: Kinase panel: PAK4. The note with it: compound at 10 μM, read-out: % of activity respect of the control. On the procedure: as §1
Sequence of PAK4 (O96013 whole entry): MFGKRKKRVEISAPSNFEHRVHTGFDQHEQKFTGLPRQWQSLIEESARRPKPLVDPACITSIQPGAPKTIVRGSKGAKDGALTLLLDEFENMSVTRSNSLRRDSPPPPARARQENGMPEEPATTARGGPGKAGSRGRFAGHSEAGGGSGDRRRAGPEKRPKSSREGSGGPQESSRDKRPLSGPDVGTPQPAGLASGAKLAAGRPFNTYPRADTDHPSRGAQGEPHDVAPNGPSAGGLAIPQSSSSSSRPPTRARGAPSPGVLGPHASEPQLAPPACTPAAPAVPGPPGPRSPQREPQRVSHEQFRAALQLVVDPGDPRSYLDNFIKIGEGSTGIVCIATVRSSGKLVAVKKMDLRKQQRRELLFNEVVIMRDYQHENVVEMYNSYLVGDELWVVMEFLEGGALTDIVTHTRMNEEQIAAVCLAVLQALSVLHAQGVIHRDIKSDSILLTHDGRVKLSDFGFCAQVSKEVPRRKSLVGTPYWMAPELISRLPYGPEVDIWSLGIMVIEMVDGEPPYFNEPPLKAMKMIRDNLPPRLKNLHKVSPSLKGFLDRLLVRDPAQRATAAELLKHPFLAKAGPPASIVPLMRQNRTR

Sequence of NEK6 (Q9HC98 whole entry): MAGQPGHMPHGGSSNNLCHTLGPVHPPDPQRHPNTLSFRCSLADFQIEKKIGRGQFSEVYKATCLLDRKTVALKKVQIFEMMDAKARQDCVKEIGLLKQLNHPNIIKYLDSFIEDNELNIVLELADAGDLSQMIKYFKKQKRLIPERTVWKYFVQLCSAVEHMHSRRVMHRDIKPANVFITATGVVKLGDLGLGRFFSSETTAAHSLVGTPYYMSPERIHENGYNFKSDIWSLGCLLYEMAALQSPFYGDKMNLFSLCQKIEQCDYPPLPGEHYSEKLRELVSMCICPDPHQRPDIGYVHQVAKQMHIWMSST
Sequence of RSK2 (P51812 whole entry): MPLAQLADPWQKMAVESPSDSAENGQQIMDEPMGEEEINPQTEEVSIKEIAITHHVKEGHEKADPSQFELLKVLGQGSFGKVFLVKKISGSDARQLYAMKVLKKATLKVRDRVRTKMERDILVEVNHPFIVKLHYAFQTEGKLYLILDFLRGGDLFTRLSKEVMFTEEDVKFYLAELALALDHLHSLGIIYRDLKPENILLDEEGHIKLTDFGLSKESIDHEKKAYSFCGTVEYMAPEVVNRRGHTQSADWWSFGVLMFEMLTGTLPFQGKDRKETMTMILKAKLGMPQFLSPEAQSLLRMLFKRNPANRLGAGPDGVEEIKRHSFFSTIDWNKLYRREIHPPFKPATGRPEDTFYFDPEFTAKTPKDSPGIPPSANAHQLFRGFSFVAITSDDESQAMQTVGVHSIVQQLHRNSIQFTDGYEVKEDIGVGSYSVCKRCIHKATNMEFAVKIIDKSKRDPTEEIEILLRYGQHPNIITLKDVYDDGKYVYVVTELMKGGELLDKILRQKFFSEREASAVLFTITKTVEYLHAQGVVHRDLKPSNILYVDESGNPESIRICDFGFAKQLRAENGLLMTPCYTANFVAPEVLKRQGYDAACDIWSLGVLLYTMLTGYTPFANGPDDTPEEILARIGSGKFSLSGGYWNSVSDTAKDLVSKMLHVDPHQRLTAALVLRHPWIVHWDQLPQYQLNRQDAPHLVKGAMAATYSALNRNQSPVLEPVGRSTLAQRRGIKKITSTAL
Sequence of JNK2 (P45984 whole entry): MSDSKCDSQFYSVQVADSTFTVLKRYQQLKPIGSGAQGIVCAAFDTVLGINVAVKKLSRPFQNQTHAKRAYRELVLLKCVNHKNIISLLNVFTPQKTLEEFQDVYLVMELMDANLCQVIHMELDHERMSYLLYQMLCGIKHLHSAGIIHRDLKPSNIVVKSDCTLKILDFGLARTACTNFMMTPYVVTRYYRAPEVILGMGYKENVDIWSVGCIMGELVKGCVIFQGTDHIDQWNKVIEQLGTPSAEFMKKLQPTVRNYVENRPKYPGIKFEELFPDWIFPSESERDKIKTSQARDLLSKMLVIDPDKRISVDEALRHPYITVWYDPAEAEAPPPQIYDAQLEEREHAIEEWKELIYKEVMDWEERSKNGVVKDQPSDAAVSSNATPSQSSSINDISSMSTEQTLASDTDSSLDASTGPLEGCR
Sequence of IRR (P14616 27-1297): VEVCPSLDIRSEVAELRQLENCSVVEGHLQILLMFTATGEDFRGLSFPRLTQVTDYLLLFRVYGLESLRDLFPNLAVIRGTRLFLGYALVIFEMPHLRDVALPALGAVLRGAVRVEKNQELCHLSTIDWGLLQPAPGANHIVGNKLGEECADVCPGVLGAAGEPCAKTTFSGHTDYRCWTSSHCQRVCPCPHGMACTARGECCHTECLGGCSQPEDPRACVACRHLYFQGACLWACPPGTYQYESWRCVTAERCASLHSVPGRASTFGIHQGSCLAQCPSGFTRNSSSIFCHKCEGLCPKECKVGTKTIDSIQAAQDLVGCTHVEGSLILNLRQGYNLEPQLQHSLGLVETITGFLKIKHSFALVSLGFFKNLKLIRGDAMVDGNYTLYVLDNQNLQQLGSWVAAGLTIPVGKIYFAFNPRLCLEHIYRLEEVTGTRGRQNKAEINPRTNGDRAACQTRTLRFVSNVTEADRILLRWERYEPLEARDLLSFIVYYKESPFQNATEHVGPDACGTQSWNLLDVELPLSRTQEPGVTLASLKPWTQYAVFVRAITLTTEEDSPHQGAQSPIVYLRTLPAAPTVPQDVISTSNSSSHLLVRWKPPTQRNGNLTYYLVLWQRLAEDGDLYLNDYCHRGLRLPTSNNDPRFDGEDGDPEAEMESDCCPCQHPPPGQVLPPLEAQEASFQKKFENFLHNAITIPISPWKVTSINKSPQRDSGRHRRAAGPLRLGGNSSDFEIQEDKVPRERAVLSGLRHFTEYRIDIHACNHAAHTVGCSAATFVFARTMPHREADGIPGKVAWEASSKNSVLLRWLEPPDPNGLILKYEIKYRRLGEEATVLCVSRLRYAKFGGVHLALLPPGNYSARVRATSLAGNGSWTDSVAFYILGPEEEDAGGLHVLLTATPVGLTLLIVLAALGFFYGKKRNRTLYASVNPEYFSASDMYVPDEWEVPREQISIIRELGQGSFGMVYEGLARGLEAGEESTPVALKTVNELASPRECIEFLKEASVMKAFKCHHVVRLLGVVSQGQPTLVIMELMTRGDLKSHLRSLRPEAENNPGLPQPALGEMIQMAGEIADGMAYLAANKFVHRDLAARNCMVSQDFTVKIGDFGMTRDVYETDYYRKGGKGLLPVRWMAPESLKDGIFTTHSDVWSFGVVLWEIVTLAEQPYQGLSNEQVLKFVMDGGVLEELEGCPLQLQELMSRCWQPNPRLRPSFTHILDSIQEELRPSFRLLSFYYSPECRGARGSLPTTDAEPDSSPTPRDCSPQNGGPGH
Sequence of PIM2 (Q9P1W9 whole entry): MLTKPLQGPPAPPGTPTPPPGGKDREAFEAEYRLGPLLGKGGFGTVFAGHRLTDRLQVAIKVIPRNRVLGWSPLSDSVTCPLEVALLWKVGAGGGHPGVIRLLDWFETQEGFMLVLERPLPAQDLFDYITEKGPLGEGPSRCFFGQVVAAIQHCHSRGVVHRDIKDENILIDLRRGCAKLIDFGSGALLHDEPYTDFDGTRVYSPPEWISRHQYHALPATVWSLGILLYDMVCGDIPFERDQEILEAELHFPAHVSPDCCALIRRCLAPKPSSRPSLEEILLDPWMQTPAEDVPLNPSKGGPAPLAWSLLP

As for `CC(c1ccccc1)n1c(=O)[nH]c2ncc(-c3ccc(F)cc3)nc21` (stereo not drawn) [Compound 1], the remaining activity at 10 µM is 96% in assay [1]; 84% in [2]; 124% in assay [3]; 110% in assay [4]; 100% in assay [5]; 113% in [6]. Moreover, the remaining activity at 10 µM in assay [7] is 89%; in [8], 101%; in [9], 89%; in [10] it was 104%; in assay [12] it was 101%. For the same compound, in assay [11], the “% of activity respect of the control” value was determined as 103%.

Take `O=c1[nH]c2ncc(-c3ccc(F)cc3)nc2n1CC1CC1` [Compound 10]: the remaining activity at 10 µM was determined as 104% in [1]; 101% in [2]; 103% in assay [3]; 113% in assay [4]; 90% in [5]; 111% in [6]. The remaining activity at 10 µM was found to be 86% in assay [7]; 106% in assay [8]; 89% in assay [9]; 97% in assay [10]; 106% in assay [12]. Also, the “% of activity respect of the control” value in assay [11] is given as 97%.

In the case of `O=c1[nH]c2ncc(-c3ccc(F)cc3)nc2n1C1CCCCC1` [Compound 12, 1-Cyclohexyl-6-(4-fluorophenyl)-1H-imidazo[4,5-b]pyrazin-2(3H)-one], the remaining activity at 10 µM was 83% in [1]; 122% in [2]; 98% in assay [3]; 104% in assay [4]; 96% in [5]; 111% in assay [6]. In addition, the remaining activity at 10 µM in [7] was determined as 94%; in assay [8], 94%; in [9], 97%; in [10], 93%; in assay [12] it was 103%. In assay [11], the “% of activity respect of the control” value was 110%.

Consider `C[C@H](c1ccccc1)n1c(=O)[nH]c2ncc(-c3ccccc3)nc21` [Compound 14, (R)-6-Phenyl-1-(1-phenylethyl)-1H-imidazo[4,5-b]pyrazin-2(3H)-one], for which the remaining activity at 10 µM in assay [1] was found to be 112%; in assay [2], 95%; in assay [3], 87%; in assay [4], 101%; in assay [5], 94%; in [6], 96%. In addition, the remaining activity at 10 µM in assay [7] worked out at 80%; in [8] it was 98%; in assay [9], 93%; in assay [10] it was 96%; in assay [12], 86%. Further, in assay [11], the “% of activity respect of the control” value came to 94%.
